Legend:
in vivo = details: Wistar, rat, iv, 2 mg/kg
Mus musculus [1] = assay: Free drug level in mouse plasma at 50 mg/kg, po at 4 hrs; format: ADME, organism-based; parameters: dose 50 mg/kg, route oral; details: in vivo
[2] = Bioavailability in Wistar rat at 2 mg/kg, iv and 10 mg/kg, po; format: ADME, organism-based; details: in vivo
Mus musculus [3] = assay: Free drug level in mouse plasma at 50 mg/kg, po at 6 hrs; format: ADME, organism-based; parameters: dose 50 mg/kg, route oral; details: in vivo
[4] = Volume of distribution in Wistar rat at 2 mg/kg, iv and 10 mg/kg, po; format: ADME, organism-based; details: in vivo, read-out: Vdss
Mus musculus [5] = assay: Free drug level in mouse plasma at 50 mg/kg, po at 24 hrs; format: ADME, organism-based; parameters: dose 50 mg/kg, route oral; details: in vivo
Mus musculus [6] = assay: Free drug level in mouse plasma at 50 mg/kg, po at 2 hrs; format: ADME, organism-based; parameters: dose 50 mg/kg, route oral; details: in vivo
Rattus norvegicus [7] = assay: AUC in Wistar rat at 10 mg/kg, po normalized to 1 mg/kg; format: ADME, organism-based, Plasma; details: in vivo
[8] = Volume of distribution in Wistar rat at 2 mg/kg, iv and 5 mg/kg, po; format: ADME, organism-based; details: in vivo, read-out: Vdss
Rattus norvegicus [9] = assay: AUC in Wistar rat at 5 mg/kg, po normalized to 1 mg/kg; format: ADME, organism-based, Plasma; details: in vivo
[10] = Bioavailability in Wistar rat at 2 mg/kg, iv and 5 mg/kg, po; format: ADME, organism-based; details: in vivo
[11] = Clearance in Wistar rat at 2 mg/kg, iv and 5 mg/kg, po; format: ADME, organism-based; details: in vivo
[12] = Volume of distribution in rat; format: ADME, organism-based; details: in vivo
[13] = Half life in rat; format: ADME, organism-based; details: in vivo
[14] = Cmax in nude mouse xenografted with human LoVo cell at 100 mg/kg, po; format: ADME, organism-based; parameters: dose 100 mg/kg, route oral; details: in vivo
[15] = Terminal half life in cancer affected human; format: ADME, organism-based; details: in vivo, read-out: beta t1/2 (converted)
[16] = AUC in nude mouse xenografted with human LoVo cell at 50 mg/kg, po; format: ADME, organism-based; parameters: dose 50 mg/kg, route oral; details: in vivo
[17] = AUC in nude mouse xenografted with human LoVo cell at 100 mg/kg, po; format: ADME, organism-based; parameters: dose 100 mg/kg, route oral; details: in vivo
[18] = Terminal half life in human; format: ADME, organism-based; details: in vivo, read-out: beta t1/2 (converted)
[19] = Cmax in nude mouse xenografted with human LoVo cell at 50 mg/kg, po; format: ADME, organism-based; parameters: dose 50 mg/kg, route oral; details: in vivo
[20] = AUC in nude mouse xenografted with human LoVo cell at 50 mg/kg, po, twice daily; format: ADME, organism-based; parameters: dose 50 mg/kg; details: in vivo
[21] = Cmax in nude mouse xenografted with human LoVo cell at 50 mg/kg, po, twice daily; format: ADME, organism-based; parameters: route oral, dose 50 mg/kg; details: in vivo

Work on `COc1cc2ncnc(Nc3cc(Cl)ccc3F)c2cc1OCCCN1CCOCC1` yielded a clearance (in vivo) of 16 mL/min/kg, a Cp (Mus musculus [1]) of 360 nM and a bioavailability [2] of 71%. For the same compound, the Cp (Mus musculus [3]) was 170 nM, the Vd [4] was 3.5 L/kg and the Cp (Mus musculus [5]) was 0 nM. It also gave a Cp (Mus musculus [6]) of 300 nM and an AUC (Rattus norvegicus [7]) of 1.64 µM·h.

Work on `COCCN1CCC(Oc2cc3c(Nc4cccc(Cl)c4F)ncnc3cc2OC)CC1` yielded a Vd [8] of 1.3 L/kg, an AUC (Rattus norvegicus [9]) of 0.95 µM·h and a pKa (physchem) of 8.1. For the same compound, the bioavailability [10] was 30% and the clearance [11] was 11 mL/min/kg.

With `COc1cc2c(Nc3ccc(Br)cc3F)ncnc2cc1OCC1CCN(C)CC1` [VANDETANIB] the pKa (physchem) was 9.3.

Work on `COc1cc2ncnc(Nc3ccc(F)c(Cl)c3)c2cc1OCC1CCN(C)CC1` yielded a pKa (physchem) of 9.3.

Work on `COc1cc2ncnc(Nc3ccc(F)c(Cl)c3)c2cc1OC1CCN(C)CC1` yielded a pKa (physchem) of 8.8.

Work on `COc1cc2ncnc(Nc3cc(Cl)ccc3F)c2cc1OC1CCN(C)CC1` yielded a pKa (physchem) of 8.8.

In the case of `COc1cc2ncnc(Nc3cccc(Cl)c3F)c2cc1OC1CCN(CC(N)=O)CC1`, the Vd [8] is reported as 2.7 L/kg, the AUC (Rattus norvegicus [9]) is reported as 0.59 µM·h and the pKa (physchem) is reported as 6.7. The bioavailability [10] was 27% and the clearance [11] was 16 mL/min/kg.

For `COc1cc2ncnc(Nc3cc(Cl)ccc3F)c2cc1OC1CCN(CC(N)=O)CC1`, the pKa (physchem) was 6.7.

Compound `COc1cc2ncnc(Nc3cccc(Cl)c3F)c2cc1OC1CCN(C)CC1` has a Vd [8] of 20.8 L/kg, an AUC (Rattus norvegicus [9]) of 0.08 µM·h and a pKa (physchem) of 8.8. The bioavailability [10] was 74% and the clearance [11] was 129 mL/min/kg.

Work on `COCCN1CCC(Oc2cc3c(Nc4cc(Cl)ccc4F)ncnc3cc2OC)CC1` yielded a pKa (physchem) of 8.1.

Work on `COc1cc2ncnc(Nc3ccc(F)c(Cl)c3)c2cc1OCCCN1CCOCC1` [GEFITINIB] yielded a Vd [12] of 5.8 L/kg, a half-life [13] of 7 h and a Cp (Mus musculus [1]) of 130 nM. For the same compound, the bioavailability [2] was 56%, the Cp (Mus musculus [3]) was 150 nM and the Vd [4] was 5.8 L/kg. It also gave a Cp (Mus musculus [5]) of 10 nM, a Cp (Mus musculus [6]) of 260 nM and an AUC (Rattus norvegicus [7]) of 0.32 µM·h. It also gave a Cmax [14] of 6700 nM, a half-life [15] of 37 h and an AUC [16] of 78.7 µM·h. The AUC [17] was 85.9 µM·h, the half-life [18] was 28 h and the Cmax [19] was 8100 nM.

`COc1cc2ncnc(Nc3cccc(Cl)c3F)c2cc1OCCCN1CCOCC1` showed a clearance (in vivo) of 29 mL/min/kg, a Cp (Mus musculus [1]) of 680 nM and a bioavailability [2] of 73%. For the same compound, the Cp (Mus musculus [3]) was 410 nM, the Vd [4] was 4.3 L/kg and the Cp (Mus musculus [5]) was 10 nM. The Cp (Mus musculus [6]) was 430 nM and the AUC (Rattus norvegicus [7]) was 0.94 µM·h.

Work on `COc1cc2ncnc(Nc3cc(Cl)ccc3F)c2cc1OCC1CCN(C)CC1` yielded a pKa (physchem) of 9.3.

With `COc1cc2ncnc(Nc3cccc(Cl)c3F)c2cc1OC1CCN(S(C)(=O)=O)CC1` the Vd [8] was 1.5 L/kg, the half-life [13] was 1.6 h and the AUC [20] was 286 µM·h. The AUC (Rattus norvegicus [9]) was 1.18 µM·h, the Cmax [21] was 23900 nM and the bioavailability [10] was 45%. The clearance [11] was 13 mL/min/kg, the Cmax [14] was 36800 nM and the AUC [16] was 225 µM·h. The AUC [17] was 450 µM·h and the Cmax [19] was 30600 nM.

Compound `COc1cc2ncnc(Nc3cccc(Cl)c3F)c2cc1OCC1CCN(C)CC1` has a pKa (physchem) of 9.3.

From ChEMBL document CHEMBL1149481, “Inhibitors of epidermal growth factor receptor tyrosine kinase: optimisation of potency and in vivo pharmacokinetics” (Bioorg Med Chem Lett, 2006)
